Experimental data published in patent publication US5055459A, “Selective elimination of malignant cells from bone marrow by bis (acyloxy) propylphosphoramidates” (Board of Regents, The University of Texas, priority 1989, dated 1991).
Converted amounts (≈) assume the structure as drawn. “Also recorded” adds a separate entry of the source.

Columns and labels:
[1] = background; cited from earlier work
[2] = system: L1210 lymphatic leukemia cells; test: cells; type: cell-based, murine; details: Mus musculus, L1210, 72 h, read-out: ED50
[3] = system: KBM-3 leukemic CFC and GM-CFC in bone marrow; test: cells; type: cell-based, human
[4] = system: KBM-3; test: Clonogenic assay, drug in agar, prolonged exposure (Table 8, FIG. 11); type: cell-based; details: Homo sapiens, drug added to agar plates
[5] = Stability in phosphate-buffered saline
[6] = system: human myeloid cell line KBM-3
[7] = system: mononuclear cells from normal bone marrow (GM-CFC)
[8] = system: HL-60; test: Clonogenic assay, drug in agar, prolonged exposure (Table 8, FIG. 11); type: cell-based; details: Homo sapiens, drug added to agar plates
[9] = system: GM-CFC from normal human bone marrow
[10] = system: KBM-3/DOX; test: cells; type: cell-based, human; details: Homo sapiens
[11] = Long-term suspension culture: GM-CFC regrowth on autologous irradiated adherent cell layers (Table 9); type: cell-based, human; details: human, bone marrow gm-cfc; concentration used in long-term suspension cultures; read-out: detectable GM-CFC abolished
Experimental: (§1) A modification of previously reported techniques was used (Gartner and Kaplan, 1980; Greenberg et al., 1981; Potter et al., 1981; Coulombel et al., 1983). Briefly, 1×10^7 mononuclear bone marrow cells were suspended in 10 ml IMDM supplemented with 12.5% horse serum, 12.5% FCS and 5×10^-6 M hydrocortisone succinate (HyC) (Abbott Laboratories, N. Chicago, Ill.) in 25 cm^2 tissue culture flasks (Corning Glass Works, Corning N.Y.). After 8 to 10 days an adherent fibroblast (feeder) layer, supplying a hemopoietic microenvironment, was established. The non-adherent cells were washed off, and the feeder layer was irradiated with 3.0 Gy gamma-irradiation at a dose rate of 3.3 Gy per min. A second bone marrow sample was obtained from the same donor, and low-density mononuclear cells were isolated as above. The cells were exposed for 60 min at 37° C. to increasing drug concentrations. After two washings, the cells were suspended in 10 ml IMDM with 10% FCS and 5×10^-6 M HyC, and then added to the previously established feeder layers. All cultures were established in duplicate, and all flasks were incubated for five weeks at 37° C. in an atmosphere of 5% CO2 and 12% O2 balanced with N2 to 100%. Twice weekly, 85% of the medium was replaced with fresh medium. Immediately after drug exposure, and at weekly intervals up to 5 weeks, one ml of the cell suspension was removed and monitored for the presence of GM-CFC using the soft agar assay as described above. The total number of surviving GM-CFC formed from untreated cells served as a quality control of the culture system and as a reference (positive controls) for calculating the surviving GM-CFC fraction in cultures of drug-treated cells Flasks containing irradiated stromal cell layers alone were subjected to the same twice-weekly media changes and were monitored weekly for possible regrowth of GM-CFC (negative controls). After five weeks, all non-adherent cells were removed from the flasks. The feeder layers were carefully rinsed twice with 10 ml of PBS, then treated with 0.2% trypsin in EDTA solution (GIBCO Laboratories, Grand Island, N.Y.) for 2-3 min at 37° C. After washing, the resulting single cell suspensions were assayed for GM-CFC.
(§2) ^a Average values ± S.D. for three experiments. In each experiment
(§3) the cultures were conducted in duplicates.
(§4) ^b At the end of the culture period. For details see Materials and […]

[12] = system: GM-CFC from normal human bone marrow; test: as above; type: cell-based; details: for GM-CFC × 10^-3 per adherent cell layer: end of culture period; for GM-CFC × 10^-3 per adherent cell layer / GM-CFC × 10^-3 per culture: average ± S.D.
Experimental: as §1, §2, §3, §4

[13] = in vitro; details: human, bone marrow gm-cfc
[14] = system: human myeloid cell line KBM-3; test: cells
[15] = system: KBM-3/AMSA; test: cells; type: cell-based, human; details: Homo sapiens
[16] = system: mononuclear cells from normal bone marrow (GM-CFC); test: cells; details: Homo sapiens, 1 h
[17] = Stability of frozen stock solution; type: physicochemical; details: frozen at -80° C., stock solution 265 uM
Experimental: In the initial experiments, acetaldoifosphamide (1-C) was weighed and dissolved in Dulbecco's phosphate-buffered saline (pH 7.4) (GIBCO, Grand Island, N.Y.) supplemented with Ca++ (10 mg %) and glucose (100 mg %) (enriched PBS) immediately prior to each experiment. […] In subsequent experiments a frozen stock solution was used; aliquots were thawed as necessary immediately prior to use.

[18] = system: HL-60/AMSA; test: cells; type: cell-based; details: Homo sapiens

O=P1(N(CCCl)CCCl)NCCCO1 (stereo not drawn) [Cyclophosphamide, cyclophosphamide, reference compound]
therapeutic index, in words [1]: higher therapeutic index than must other mustard-type alkylating agents
IC50 [2]: 20 µg/mL (≈ 76.6 µM)

CC(=O)OC(CCOP(=O)(NCCCl)NCCCl)OC(C)=O [acetaldoifosphamide]
regrowth / elimination of leukemic cells [3]: leukemic cell proliferation was not evident; also recorded: no regrowth of leukemic CFC was observed; also recorded: the leukemia was completely eliminated with full recovery of GM-CFC production
log reduction at 39.6 µM ([3]; Homo sapiens, 1 h, read-out: reduction of leukemic cells): > 5
IC50 [4]: 200 nM
half-life ([5]; pbs, pH 7.4): > 80 h
stability in saline solution ([5]; saline solution): stable in saline solution
activity against normal marrow GM-CFC versus leukemic myeloid CFC (KBM-3) [6]: more active against normal marrow GM-CFC than against leukemic myeloid CFC
dependence of cytotoxicity on cell concentration [6]: a 20-fold increase in cell concentration results in only a two-fold decrease in cytotoxicity
increase in clonogenic KBM-3 cell survival [6]: 2 fold
effect of erythrocytes on activity [7]: decreases the activity
cytotoxicity relative to 4-HC on a molar basis ([7]; human): 8-10 times
IC50 [8]: 300 nM
GM-CFC doubling time [9]: 6 to 12 h
GM-CFC recovery kinetics / progenitor sparing, in words [9]: has a sparing effect on very immature hemopoietic stem cells
delay in proliferation of the GM-CFC pool [9]: 24 h
detectable GM-CFC after highest concentration [9]: initially had no detectable GM-CFC, however after day two rapid GM-CFC proliferation was apparent
IC50 [10]: 160 nM
cytotoxicity at 1 h [11]: > 99%
GM-CFC × 10^-3 per adherent cell layer ([12]; 26.4 uM): 0.22 ± 0.09 GM-CFC × 10^-3 per adherent ce
GM-CFC × 10^-3 per culture ([12]; 26.4 uM, week 0): 2.8 ± 1.5 GM-CFC × 10^-3 per culture
GM-CFC × 10^-3 per culture ([12]; 26.4 uM, week 1): 15.0 ± 1.8 GM-CFC × 10^-3 per culture
GM-CFC × 10^-3 per culture ([12]; 26.4 uM, week 2): 18.2 ± 4.6 GM-CFC × 10^-3 per culture
GM-CFC × 10^-3 per culture ([12]; 26.4 uM, week 3): 2.9 ± 1.1 GM-CFC × 10^-3 per culture
GM-CFC × 10^-3 per culture ([12]; 26.4 uM, week 4): 0.8 ± 0.4 GM-CFC × 10^-3 per culture
GM-CFC × 10^-3 per culture ([12]; 26.4 uM, week 5): 0.09 ± 0.03 GM-CFC × 10^-3 per culture
GM-CFC content of adherent cell layer vs controls ([12]; 33 uM, end of five weeks): contained more GM-CFC than the controls
GM-CFC × 10^-3 per adherent cell layer ([12]; 33.0 uM): 0.12 ± 0.04 GM-CFC × 10^-3 per adherent ce
GM-CFC × 10^-3 per culture ([12]; 33.0 uM, week 0): 0.1 ± 0.04 GM-CFC × 10^-3 per culture
GM-CFC × 10^-3 per culture ([12]; 33.0 uM, week 1): 7.7 ± 1.3 GM-CFC × 10^-3 per culture
GM-CFC × 10^-3 per culture ([12]; 33.0 uM, week 2): 18.6 ± 2.5 GM-CFC × 10^-3 per culture
GM-CFC × 10^-3 per culture ([12]; 33.0 uM, week 3): 2.6 ± 0.3 GM-CFC × 10^-3 per culture
GM-CFC × 10^-3 per culture ([12]; 33.0 uM, week 4): 1.1 ± 0.3 GM-CFC × 10^-3 per culture
GM-CFC × 10^-3 per culture ([12]; 33.0 uM, week 5): 0.13 ± 0.06 GM-CFC × 10^-3 per culture
GM-CFC content of adherent cell layer vs controls ([12]; 39.6 uM, end of five weeks): had the same GM-CFC content as the controls
GM-CFC × 10^-3 per adherent cell layer ([12]; 39.6 uM): 0.06 ± 0.03 GM-CFC × 10^-3 per adherent ce
GM-CFC × 10^-3 per culture ([12]; 39.6 uM, week 0): 0.3 ± 0.2 GM-CFC × 10^-3 per culture
GM-CFC × 10^-3 per culture ([12]; 39.6 uM, week 1): 16.8 ± 7.6 GM-CFC × 10^-3 per culture
GM-CFC × 10^-3 per culture ([12]; 39.6 uM, week 2): 18.5 ± 6.5 GM-CFC × 10^-3 per culture
GM-CFC × 10^-3 per culture ([12]; 39.6 uM, week 3): 3.9 ± 1.3 GM-CFC × 10^-3 per culture
GM-CFC × 10^-3 per culture ([12]; 39.6 uM, week 4): 0.8 ± 0.3 GM-CFC × 10^-3 per culture
GM-CFC × 10^-3 per culture ([12]; 39.6 uM, week 5): 0.10 ± 0.02 GM-CFC × 10^-3 per culture
number of GM-CFC in non-adherent and adherent population ([12]; 53 uM, end of five weeks): subnormal number of GM-CFC
GM-CFC × 10^-3 per adherent cell layer ([12]; 53.0 uM): 0.03 ± 0.01 GM-CFC × 10^-3 per adherent ce
GM-CFC × 10^-3 per culture ([12]; 53.0 uM, week 0): 0 GM-CFC × 10^-3 per culture
GM-CFC × 10^-3 per culture ([12]; 53.0 uM, week 1): 0.2 ± 0.0 GM-CFC × 10^-3 per culture
GM-CFC × 10^-3 per culture ([12]; 53.0 uM, week 2): 1.2 ± 0.2 GM-CFC × 10^-3 per culture
GM-CFC × 10^-3 per culture ([12]; 53.0 uM, week 3): 0.3 ± 0.1 GM-CFC × 10^-3 per culture
GM-CFC × 10^-3 per culture ([12]; 53.0 uM, week 4): 0.06 ± 0.02 GM-CFC × 10^-3 per culture
GM-CFC × 10^-3 per culture ([12]; 53.0 uM, week 5): 0.006 ± 0.002 GM-CFC × 10^-3 per culture
IC99 ([12]; Homo sapiens, 1 h, GM-CFC): 33 µM
IC100 ([12]; Homo sapiens, 1 h, GM-CFC): 53 µM
time to recovery of GM-CFC to control level ([12]; after bone marrow exposure): ≤ 2 weeks
GM-CFC recovery to control levels ([12]; normal bone marrow, concentration abolishing more than 99% of GM-CFC): two to three weeks
cytotoxicity at 1 h [13]: 95 to 100%
IC90 [14]: ~1300 nM
IC50 [15]: 680 nM
IC50 [16]: 11500 to 12500 nM
retention of full cytotoxic activity on storage [17]: retained full cytotoxic activity for more than four months
IC50 [18]: 560 nM
